Measured values from ChEMBL document CHEMBL4229379, “Synthesis and structure-activity relationship of novel bisindole amidines active against MDR Gram-positive and Gram-negative bacteria” (Eur J Med Chem, 2018).
≈ marks a conversion by molar mass, not a printed value.

Columns and labels:
[1] = tested on: Proteus vulgaris; assay: Antibacterial activity against Proteus vulgaris ATCC 29905 after 18 hrs by CLSI broth microdilution method; type: functional; conditions: ATCC 29905, 18 h
[2] = tested on: Escherichia coli; assay: Antibacterial activity against extended-spectrum beta-lactamase harboring Escherichia coli 12-15 after 18 hrs by CLSI broth microdilution method; type: functional; conditions: 12-15, 18 h
[3] = tested on: Staphylococcus epidermidis; assay: Antibacterial activity against methicillin-sensitive Staphylococcus epidermidis 12-6 after 18 hrs by CLSI broth microdilution method; type: functional; conditions: 12-6, 18 h
[4] = tested on: Enterococcus faecium; assay: Antibacterial activity against vancomycin-resistant Enterococcus faecium ATCC 700221 after 18 hrs by CLSI broth microdilution method; type: functional; conditions: ATCC 700221, 18 h
[5] = tested on: Escherichia coli; assay: Antibacterial activity against extended-spectrum beta-lactamase deficient Escherichia coli 1515 after 18 hrs by CLSI broth microdilution method; type: functional; conditions: Escherichia coli, 1515, 18 h
[6] = tested on: Stenotrophomonas maltophilia; assay: Antibacterial activity against Stenotrophomonas maltophilia ATCC 13636 after 18 hrs by CLSI broth microdilution method; type: functional; conditions: ATCC 13636, 18 h
[7] = tested on: Pseudomonas aeruginosa; assay: Antibacterial activity against Pseudomonas aeruginosa 12-16 after 18 hrs by CLSI broth microdilution method; type: functional; conditions: 12-16, 18 h
[8] = tested on: Pseudomonas aeruginosa; assay: Antibacterial activity against Pseudomonas aeruginosa ATCC 27853 after 18 hrs by CLSI broth microdilution method; type: functional; conditions: ATCC 27853, 18 h
[9] = tested on: Enterococcus faecium; assay: Antibacterial activity against vancomycin-resistant Enterococcus faecium 12-1 after 18 hrs by CLSI broth microdilution method; type: functional; conditions: 12-1, 18 h
[10] = tested on: Escherichia coli; assay: Antibacterial activity against extended-spectrum beta-lactamase deficient Escherichia coli ATCC 25922 after 18 hrs by CLSI broth microdilution method; type: functional; conditions: ATCC 25922, 18 h
[11] = tested on: Staphylococcus aureus; assay: Antibacterial activity against methicillin-sensitive Staphylococcus aureus 15 after 18 hrs by CLSI broth microdilution method; type: functional; conditions: Staphylococcus aureus, 15, 18 h
[12] = tested on: Enterococcus faecium; assay: Antibacterial activity against vancomycin-sensitive Enterococcus faecium 12-3 after 18 hrs by CLSI broth microdilution method; type: functional; conditions: 12-3, 18 h
[13] = tested on: Enterobacter cloacae; assay: Antibacterial activity against Enterobacter cloacae ATCC 43560 after 18 hrs by CLSI broth microdilution method; type: functional; conditions: ATCC 43560, 18 h
[14] = tested on: Staphylococcus aureus; assay: Antibacterial activity against methicillin-sensitive Staphylococcus aureus 12-28 after 18 hrs by CLSI broth microdilution method; type: functional; conditions: 12-28, 18 h
[15] = tested on: Staphylococcus aureus; assay: Antibacterial activity against methicillin-sensitive Staphylococcus aureus ATCC 29213 after 18 hrs by CLSI broth microdilution method; type: functional; conditions: ATCC 29213, 18 h
[16] = tested on: Klebsiella pneumoniae; assay: Antibacterial activity against new delhi metallo-beta-lactamase-1 harboring Klebsiella pneumoniae ATCC BAA-2146 after 18 hrs by CLSI broth microdilution method; type: functional; conditions: ATCC BAA-2146, 18 h
[17] = tested on: Staphylococcus aureus; assay: Antibacterial activity against methicillin-resistant Staphylococcus aureus ATCC 33591 after 18 hrs by CLSI broth microdilution method; type: functional; conditions: ATCC 33591, 18 h
[18] = Cytotoxicity against HEK293T cells assessed as reduction in cell viability after 48 hrs by MTS assay; type: cell-based, HEK-293T; conditions: human
[19] = tested on: Acinetobacter calcoaceticus; assay: Antibacterial activity against Acinetobacter calcoaceticus ATCC 19606 after 18 hrs by CLSI broth microdilution method; type: functional; conditions: ATCC 19606, 18 h
[20] = tested on: Staphylococcus aureus; assay: Antibacterial activity against methicillin-resistant Staphylococcus aureus 12-33 after 18 hrs by CLSI broth microdilution method; type: functional; conditions: 12-33, 18 h
[21] = tested on: Escherichia coli; assay: Antibacterial activity against extended-spectrum beta-lactamase deficient Escherichia coli 12-14 after 18 hrs by CLSI broth microdilution method; type: functional; conditions: 12-14, 18 h
[22] = tested on: Klebsiella pneumoniae; assay: Antibacterial activity against extended-spectrum beta-lactamase harboring Klebsiella pneumoniae 12-8 after 18 hrs by CLSI broth microdilution method; type: functional; conditions: 12-8, 18 h
[23] = tested on: Pseudomonas aeruginosa; assay: Antibacterial activity against Pseudomonas aeruginosa PAO1 after 18 hrs by CLSI broth microdilution method; type: functional; conditions: PAO1, 18 h
[24] = tested on: Enterococcus faecalis; assay: Antibacterial activity against vancomycin-sensitive Enterococcus faecalis ATCC 29212 after 18 hrs by CLSI broth microdilution method; type: functional; conditions: ATCC 29212, 18 h
[25] = tested on: Klebsiella pneumoniae; assay: Antibacterial activity against extended-spectrum beta-lactamase deficient Klebsiella pneumoniae 12-4 after 18 hrs by CLSI broth microdilution method; type: functional; conditions: 12-4, 18 h
[26] = tested on: Klebsiella aerogenes; assay: Antibacterial activity against Enterobacter aerogenes ATCC 13048 after 18 hrs by CLSI broth microdilution method; type: functional; conditions: ATCC 13048, 18 h
[27] = tested on: Citrobacter freundii; assay: Antibacterial activity against Citrobacter freundii ATCC 43864 after 18 hrs by CLSI broth microdilution method; type: functional; conditions: ATCC 43864, 18 h
[28] = tested on: Staphylococcus epidermidis; assay: Antibacterial activity against methicillin-sensitive Staphylococcus epidermidis ATCC 12228 after 18 hrs by CLSI broth microdilution method; type: functional; conditions: ATCC 12228, 18 h
[29] = tested on: Serratia marcescens; assay: Antibacterial activity against Serratia marcescens ATCC 21074 after 18 hrs by CLSI broth microdilution method; type: functional; conditions: ATCC 21074, 18 h
[30] = tested on: Enterococcus faecalis; assay: Antibacterial activity against vancomycin-sensitive Enterococcus faecalis 12-5 after 18 hrs by CLSI broth microdilution method; type: functional; conditions: 12-5, 18 h
[31] = tested on: Proteus mirabilis; assay: Antibacterial activity against Proteus mirabilis 12-6 after 18 hrs by CLSI broth microdilution method; type: functional; conditions: 12-6, 18 h
[32] = tested on: Providencia rettgeri; assay: Antibacterial activity against Providencia rettgeri ATCC 31052 after 18 hrs by CLSI broth microdilution method; type: functional; conditions: ATCC 31052, 18 h
[33] = tested on: Enterococcus faecalis; assay: Antibacterial activity against vancomycin-resistant Enterococcus faecalis 09-9 after 18 hrs by CLSI broth microdilution method; type: functional; conditions: 09-9, 18 h
[34] = tested on: Klebsiella pneumoniae; assay: Antibacterial activity against extended-spectrum beta-lactamase harboring Klebsiella pneumoniae ATCC 700603 after 18 hrs by CLSI broth microdilution method; type: functional; conditions: Klebsiella pneumoniae, 700603, 18 h
[35] = tested on: Staphylococcus epidermidis; assay: Antibacterial activity against methicillin-resistant Staphylococcus epidermidis 12-8 after 18 hrs by CLSI broth microdilution method; type: functional; conditions: 12-8, 18 h
[36] = tested on: Klebsiella pneumoniae; assay: Antibacterial activity against extended-spectrum beta-lactamase deficient Klebsiella pneumoniae 7 after 18 hrs by CLSI broth microdilution method; type: functional; conditions: Klebsiella pneumoniae, 7, 18 h
[37] = tested on: Enterococcus faecalis; assay: Antibacterial activity against vancomycin-resistant Enterococcus faecalis ATCC 51299 after 18 hrs by CLSI broth microdilution method; type: functional; conditions: ATCC 51299, 18 h

Compound	MIC [1] [µg/mL]	MIC [2] [µg/mL]	MIC [3] [µg/mL]	MIC [4] [µg/mL]	MIC [5] [µg/mL]	MIC [6] [µg/mL]	MIC [7] [µg/mL]	MIC [8] [µg/mL]	MIC [9] [µg/mL]	MIC [10] [µg/mL]	MIC [11] [µg/mL]	MIC [12] [µg/mL]	MIC [13] [µg/mL]	MIC [14] [µg/mL]	MIC [15] [µg/mL]	MIC [16] [µg/mL]	MIC [17] [µg/mL]	CC50 at 48 h [18] [µg/mL]	MIC [19] [µg/mL]	MIC [20] [µg/mL]	further results
CCNC(=N)c1ccc2cc(-c3ccc(-c4cc5ccc(C(=N)NCC)cc5[nH]4)cc3)[nH]c2c1	64 (≈ 143 µM)	16 (≈ 35.7 µM)	1 (≈ 2.23 µM)	1 (≈ 2.23 µM)	32 (≈ 71.3 µM)	8 (≈ 17.8 µM)	32 (≈ 71.3 µM)	8 (≈ 17.8 µM)	1 (≈ 2.23 µM)	8 (≈ 17.8 µM)	1 (≈ 2.23 µM)	2 (≈ 4.46 µM)	16 (≈ 35.7 µM)	1 (≈ 2.23 µM)	1 (≈ 2.23 µM)	32 (≈ 71.3 µM)	1 (≈ 2.23 µM)	4.1 (≈ 9.14 µM)	64 (≈ 143 µM)	1 (≈ 2.23 µM)	MIC [21]: 16 µg/mL (≈ 35.7 µM); MIC [22]: 32 µg/mL (≈ 71.3 µM); MIC [23]: 32 µg/mL (≈ 71.3 µM); MIC [24]: 1 µg/mL (≈ 2.23 µM); MIC [25]: 16 µg/mL (≈ 35.7 µM); MIC [26]: 16 µg/mL (≈ 35.7 µM); MIC [27]: 16 µg/mL (≈ 35.7 µM); MIC [28]: 0.5 µg/mL (≈ 1.11 µM); MIC [29]: 32 µg/mL (≈ 71.3 µM); MIC [30]: 2 µg/mL (≈ 4.46 µM); MIC [31]: > 64 µg/mL; MIC [32]: 32 µg/mL (≈ 71.3 µM); MIC [33]: 2 µg/mL (≈ 4.46 µM); MIC [34]: 32 µg/mL (≈ 71.3 µM); MIC [35]: 1 µg/mL (≈ 2.23 µM); MIC [36]: 16 µg/mL (≈ 35.7 µM); MIC [37]: 2 µg/mL (≈ 4.46 µM)
N=C(c1ccc2cc(-c3ccc(-c4cc5ccc(C(=N)N6CCCC6)cc5[nH]4)cc3)[nH]c2c1)N1CCCC1	8 (≈ 16 µM)	4 (≈ 7.99 µM)	0.25 (≈ 0.499 µM)	4 (≈ 7.99 µM)	4 (≈ 7.99 µM)	16 (≈ 32 µM)	64 (≈ 128 µM)	> 128	4 (≈ 7.99 µM)	4 (≈ 7.99 µM)	2 (≈ 3.99 µM)	4 (≈ 7.99 µM)	8 (≈ 16 µM)	2 (≈ 3.99 µM)	2 (≈ 3.99 µM)	8 (≈ 16 µM)	2 (≈ 3.99 µM)	4.15 (≈ 8.29 µM)	16 (≈ 32 µM)	2 (≈ 3.99 µM)	MIC [21]: 4 µg/mL (≈ 7.99 µM); MIC [22]: 8 µg/mL (≈ 16 µM); MIC [23]: > 128 µg/mL; MIC [24]: 4 µg/mL (≈ 7.99 µM); MIC [25]: 8 µg/mL (≈ 16 µM); MIC [26]: 8 µg/mL (≈ 16 µM); MIC [27]: 8 µg/mL (≈ 16 µM); MIC [28]: 0.25 µg/mL (≈ 0.499 µM); MIC [29]: 64 µg/mL (≈ 128 µM); MIC [30]: 4 µg/mL (≈ 7.99 µM); MIC [31]: 8 µg/mL (≈ 16 µM); MIC [32]: 8 µg/mL (≈ 16 µM); MIC [33]: 4 µg/mL (≈ 7.99 µM); MIC [34]: 16 µg/mL (≈ 32 µM); MIC [35]: 1 µg/mL (≈ 2 µM); MIC [36]: 8 µg/mL (≈ 16 µM); MIC [37]: 8 µg/mL (≈ 16 µM)
CCC(C)NC(=N)c1ccc2cc(-c3ccc(-c4cc5ccc(C(=N)NC(C)CC)cc5[nH]4)cc3)[nH]c2c1 (stereo unspecified)	4 (≈ 7.93 µM)	4 (≈ 7.93 µM)	1 (≈ 1.98 µM)	2 (≈ 3.96 µM)	4 (≈ 7.93 µM)	4 (≈ 7.93 µM)	16 (≈ 31.7 µM)	4 (≈ 7.93 µM)	2 (≈ 3.96 µM)	4 (≈ 7.93 µM)	0.5 (≈ 0.991 µM)	1 (≈ 1.98 µM)	4 (≈ 7.93 µM)	0.5 (≈ 0.991 µM)	0.5 (≈ 0.991 µM)	4 (≈ 7.93 µM)	0.5 (≈ 0.991 µM)	15.4 (≈ 30.6 µM)	16 (≈ 31.7 µM)	0.5 (≈ 0.991 µM)	MIC [21]: 4 µg/mL (≈ 7.93 µM); MIC [22]: 4 µg/mL (≈ 7.93 µM); MIC [23]: 16 µg/mL (≈ 31.7 µM); MIC [24]: 1 µg/mL (≈ 1.98 µM); MIC [25]: 4 µg/mL (≈ 7.93 µM); MIC [26]: 4 µg/mL (≈ 7.93 µM); MIC [27]: 4 µg/mL (≈ 7.93 µM); MIC [28]: 0.25 µg/mL (≈ 0.495 µM); MIC [29]: 8 µg/mL (≈ 15.9 µM); MIC [30]: 2 µg/mL (≈ 3.96 µM); MIC [31]: 16 µg/mL (≈ 31.7 µM); MIC [32]: 4 µg/mL (≈ 7.93 µM); MIC [33]: 2 µg/mL (≈ 3.96 µM); MIC [34]: 8 µg/mL (≈ 15.9 µM); MIC [35]: 0.5 µg/mL (≈ 0.991 µM); MIC [36]: 4 µg/mL (≈ 7.93 µM); MIC [37]: 2 µg/mL (≈ 3.96 µM)
